According to paper PMC10286459 (Cell & Bioscience, 2023):
Non-standard residues stand in square brackets, D forms with d. Residues, ends and D or L forms follow the SMILES beside them.

Key:
mouse Foxm1 = molecular target: T1, mouse Foxm1 (Mus musculus, UniProt O08696); experiment: Biotin-peptide Pulldown in 4T1 cell lysates; assay type: binding; conditions: biotin-labeled, 20 µM, 4T1 cell lysates (500 µg); Fig. S18B
T1 construct: endogenous in cells; host or cells: 4T1 mouse breast cancer cell lysate

[1] = molecular target: T2, interaction between FOXM1 and PLK1 (Homo sapiens, UniProt Q08050); experiment: Co-IP in 231-Flag-FOXM1-Ind cells; assay type: cell-based; conditions: doxycycline 200 ng/mL 24 h, M1-21 10, 20 µM or TAT-106-126 20, 40, 80 µM for 6 h
T2 construct: expressed in transfected cells; host or cells: MDA-MB-231 stably infected with pLVX-TetOne-Flag-FOXM1b lentivirus (231-Flag-FOXM1-Ind), doxycycline-induced
From the text: Number of repetitions = 3. […] Number of repetitions = 3. […] Number of repetitions = 3. […] GAPDH was used as a loading control.

[2] = molecular target: truncated FOXM1 recombinant proteins tagged by GST (Homo sapiens, UniProt Q08050); experiment: Pulldown of GST-tagged truncated FOXM1 recombinant proteins; conditions: Biotin-M1-21 20 µM, recombinant protein 100 µg; Ponceau S
[3] = molecular target: truncated FOXM1 recombinant proteins tagged by GST (Homo sapiens, UniProt Q08050); experiment: as above; conditions: Biotin-M1-21 20 µM, recombinant protein 100 µg; Ponceau S; remark: listed apart in the source
[4] = molecular target: truncated FOXM1 recombinant proteins tagged by GST (Homo sapiens, UniProt Q08050); experiment: as above; conditions: Biotin-M1-21 20 µM, recombinant protein 100 µg; Ponceau S; remark: listed apart in the source
[5] = system: FOXM1-binding promoters (6xFOXM1 binding sequence-containing promoter, − 1.8 kb promoter of CDC25B); experiment: Dual luciferase reporter, FOXM1-binding promoters; conditions: HEK-293T, cotransfection with pCMV-FOXM1; M1-21 5, 10, 20 µM for 24 h; n = 3
full-length FOXM1 = molecular target: T3, full-length FOXM1 (Homo sapiens, UniProt Q08050); experiment: Biotin-peptide Pulldown with Streptavidin Magnetic Beads; assay type: binding; conditions: biotin-labeled peptide, cell lysates (500 µg) with endogenous or exogenous FOXM1; Western Blotting
T3 sequence (Q08050 703-763 limits assumed): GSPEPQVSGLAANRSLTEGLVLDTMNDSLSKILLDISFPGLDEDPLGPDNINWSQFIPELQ
Method: SDS-PAGE gel electrophoresis and Coomassie brilliant blue staining were performed to measure peptide stability. […] Cells were collected at different post-treatment time points (0, 1, 2, 4, 8, 16, 24, 36, 48 h). […] D The docking of peptide P22 (106–126) to the FOXM1 C-terminus (PDB ID 6OSW) was created by Rosetta FlexPepDock and PyMOL. Left, the interface of peptide-protein interaction, the peptide was shown in cyan, and the C-terminus of FOXM1 was shown according to its electrostatic potential. Right, hydrogen bonds are formed by residues at the interface of peptide and protein interaction. […] Streptavidin magnetic beads were added to lysates to pull down the biotin-peptides/protein complexes. […] M1-21mut was used as the control.

[6] = molecular target: interaction between FOXM1 and β-catenin (Homo sapiens, UniProt Q08050); experiment: Co-IP in 231-Flag-FOXM1-Ind cells; conditions: 10, 20 µM for 6 h
[7] = system: spontaneous breast cancers; experiment: Spontaneous breast cancer FVB/N MMTV-PyVT mice
[8] = H&E staining of organs after repeated injection; assay type: in vivo, mouse; conditions: ICR/JCL mice, 30 mg/kg intraperitoneal once every two days for three weeks
Method: One week later, the animals’ different organs were harvested and subjected to tissue sectioning and H&E staining. Photos were taken by inverted microscope (400×, Nikon TE2000). […] The mice’s diet and activity were observed continuously for 14 days. […] Water and PBS were used as hemolysis positive and negative controls, respectively. The absorbance of the samples was measured at 540 nm and used to calculate the Hemolysis rate % = [(OD Sample - OD Negative) / (OD Positive - OD Negative)] × 100%. E Immunogenicity analysis of M1-21. […] Blood samples were collected from mice at different time points (Week 2 to Week 8) and the absorption of anti-M1-21 antibody in serum (1:1000 dilution) was measured by ELISA. HRP-conjugated anti-mouse IgG was used as an ELISA secondary antibody.

FOXM1/DNA complex = FOXM1/DNA complex (Homo sapiens, UniProt Q08050); experiment: Electrophoretic Mobility Shift Assays (EMSAs); assay type: biochemical; conditions: recombinant FOXM1 2 µM, FAM-labeled DNA probe 50 nM, M1-21 0.5, 1, 2 µM
Method: A FAM-labeled DNA probe (50 nM) was mixed with recombinant FOXM1 protein (2 µM) for EMSAs. […] The specificity of FOXM1/DNA complex formation was shown using 100× unlabeled DNA probes (cold probes, 5000 nM). Reactions were resolved in 4% native polyacrylamide gel electrophoresis in 0.5×TBE and visualized with a Kodak 4000 MM Imaging System (EX: 465 nm, EM: 535 nm). B The docking of P22 to FOXM1 DNA Binding domain (DBD, PDB ID 3G73) was created by Rosetta FlexPepDock and PyMOL. Left, the interface of peptide-protein interaction, peptide was shown in cyan and FOXM1 DBD was shown according to its electrostatic potential. Right, hydrogen bonds were formed by residues (blue from peptide and black from FOXM1 DBD) at the interface of peptide and protein interaction.
The double-strand DNA (dsDNA) probe was synthesized by Sangon Co., Ltd. (Shanghai, China). Protein (2 µM) was incubated with FAM-labeled dsDNA probe (50 nM) in binding buffer (20 mM Tris-Cl, 50 mM KCl, 0.5 mM EDTA, 0.2 mM DTT, 10% glycerol, pH 7.6) for 30 min on ice. […] The reactions were resolved in 4% native polyacrylamide gel electrophoresis in 0.5×TBE and visualized with Kodak 4000 MM Imaging System (Kodak, USA) (EX: 465 nm, EM: 535 nm for FAM). Sequence information is available in Supplementary Table S3.

[9] = system: − 1.4 kb promoter of PLK1; experiment: Dual luciferase reporter, CHR-containing promoter; conditions: HEK-293T, PLK1 pro(-1.4 kb)-Luc with pCMV-FOXM1; 5, 10, 20 µM for 24 h; n = 3
[10] = In vivo imaging of distribution of ICG-labeled peptide; design: species or system mouse; conditions: ICG-labeled M1-21, 30 mg/kg tail vein, wild-type ICR/JCL mice; IVIS imaging 0.5-24 h
TCF/LEF-binding promoter = experiment: Dual luciferase reporter, TCF/LEF-binding promoter; conditions: HEK-293T; 5, 10, 20 µM for 24 h; n = 3
MCF-10A cells = conditions: 0-50 µM, 72 h, trypan blue, Fig. S11
[11] = 20 mg/kg intraperitoneal once daily for 28 days, Day 29

FOXM1/DNA complex, sequence (Q08050 1-748 isoform Q08050-2, one chain of several): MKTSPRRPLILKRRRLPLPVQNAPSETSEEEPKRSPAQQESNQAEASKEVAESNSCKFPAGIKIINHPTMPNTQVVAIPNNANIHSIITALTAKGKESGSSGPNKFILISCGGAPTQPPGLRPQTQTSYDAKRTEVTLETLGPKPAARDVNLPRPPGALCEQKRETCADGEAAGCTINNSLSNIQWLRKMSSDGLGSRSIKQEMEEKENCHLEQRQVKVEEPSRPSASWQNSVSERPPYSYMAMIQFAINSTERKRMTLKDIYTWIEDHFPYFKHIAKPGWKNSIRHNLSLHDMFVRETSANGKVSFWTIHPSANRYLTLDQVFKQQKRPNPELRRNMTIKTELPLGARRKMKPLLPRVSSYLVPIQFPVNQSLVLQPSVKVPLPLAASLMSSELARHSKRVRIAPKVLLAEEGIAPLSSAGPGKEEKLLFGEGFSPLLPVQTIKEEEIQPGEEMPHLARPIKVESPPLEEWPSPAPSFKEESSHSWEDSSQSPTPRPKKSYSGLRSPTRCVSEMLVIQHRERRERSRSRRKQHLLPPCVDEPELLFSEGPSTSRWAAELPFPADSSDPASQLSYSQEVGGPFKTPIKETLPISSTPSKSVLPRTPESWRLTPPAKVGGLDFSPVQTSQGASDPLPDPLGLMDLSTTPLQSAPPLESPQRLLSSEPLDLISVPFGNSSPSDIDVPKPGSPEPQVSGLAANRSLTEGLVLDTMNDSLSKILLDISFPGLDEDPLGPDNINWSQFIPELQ
T2 sequence (Q08050 1-748 isoform Q08050-2): as the sequence (Q08050 1-748 isoform Q08050-2, one chain of several) above
interaction between FOXM1 and β-catenin, sequence (Q08050 1-748 isoform Q08050-2): as the sequence (Q08050 1-748 isoform Q08050-2, one chain of several) above
T1 sequence (O08696 whole entry): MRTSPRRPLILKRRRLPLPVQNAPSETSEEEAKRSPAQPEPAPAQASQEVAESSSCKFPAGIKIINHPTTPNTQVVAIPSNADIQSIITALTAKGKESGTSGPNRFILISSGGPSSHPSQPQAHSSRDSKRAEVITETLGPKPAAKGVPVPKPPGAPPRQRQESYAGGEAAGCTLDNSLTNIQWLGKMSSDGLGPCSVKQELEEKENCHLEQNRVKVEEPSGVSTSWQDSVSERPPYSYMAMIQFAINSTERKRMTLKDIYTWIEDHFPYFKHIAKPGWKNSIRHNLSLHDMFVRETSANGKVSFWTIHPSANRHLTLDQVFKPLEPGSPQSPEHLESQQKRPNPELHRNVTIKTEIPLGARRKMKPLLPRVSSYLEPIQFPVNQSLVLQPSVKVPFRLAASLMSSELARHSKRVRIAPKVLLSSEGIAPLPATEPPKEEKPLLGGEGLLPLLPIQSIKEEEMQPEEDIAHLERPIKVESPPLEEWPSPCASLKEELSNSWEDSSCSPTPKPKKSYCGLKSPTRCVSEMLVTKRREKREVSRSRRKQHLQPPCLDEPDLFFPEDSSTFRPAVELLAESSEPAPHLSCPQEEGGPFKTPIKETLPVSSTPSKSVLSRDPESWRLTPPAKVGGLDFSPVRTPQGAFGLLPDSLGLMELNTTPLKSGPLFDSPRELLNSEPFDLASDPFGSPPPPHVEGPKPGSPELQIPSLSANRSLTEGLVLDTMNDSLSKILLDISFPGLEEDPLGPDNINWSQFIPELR

## CC[C@@H](C)[C@@H](NC(=O)[C@@H](CC(C)C)NC(=O)[C@H](NC(=O)[C@@H](CO)NC(=O)[C@@H](CS)NC(=O)CNC(=O)CNC(=O)[C@@H](C)NC(=O)[C@H]1CCCN1C(=O)[C@H](NC(=O)[C@@H](CCC(N)=O)NC(=O)[C@H]1CCCN1C(=O)[C@H]1CCCN1C(=O)CNC(=O)[C@@H](CC(C)C)NC(=O)[C@@H](CCCNC(=N)N)NC(=O)[C@H]1CCCN1C(=O)[C@@H](CCC(N)=O)NC(=O)[C@H](NC(=O)[C@H](N)CCC(N)=O)[C@H](C)O)[C@H](C)O)[C@H](C)CC)C(=O)N[C@H](Cc1ccccc1)C(=O)N[C@H](CCCNC(=N)N)C(=O)N[C@H](CCCNC(=N)N)C(=O)N[C@H](CCCNC(=N)N)C(=O)N[C@H](CCC(N)=O)C(=O)N[C@H](CCCNC(=N)N)C(=O)N[C@H](CCCNC(=N)N)C(=O)N[C@H](CCCCN)C(=O)N[C@H](CCCCN)C(=O)N[C@H](CCCNC(=N)N)C(=O)NCC(=O)O [M1-21] (H-[dQ][dT][dQ][dP][dR][dL]G[dP][dP][dQ][dT][dP][dA]GG[dC][dS][dI][dL][dI][dF][dR][dR][dR][dQ][dR][dR][dK][dK][dR]G-OH; N-terminus and C-terminus assumed)
Mouse Foxm1
  binding to endogenous mouse Foxm1 in Pulldown: could bind
[1]
  interaction between FOXM1 and PLK1 (Co-IP): disrupted the interaction
[2]
  binding to GST-FOXM1_688-748 in Pulldown: bound
[3]
  binding to GST-FOXM1_1-138 in Pulldown: bound
[4]
  binding to GST-FOXM1_221-353 in Pulldown: bound
[5]
  FOXM1-mediated stimulation on FOXM1-binding promoters (luciferase): abrogated FOXM1-mediated stimulation
full-length FOXM1
  binding to full-length FOXM1 in Pulldown: bound
[6]
  interaction between FOXM1 and β-catenin (Co-IP): disrupted the interaction
[7]; [11]
  mice with therapeutic benefit, of the seven treated: six mice had obvious therapeutic benefits and even one mouse was cancer-free
  weight of total cancer tissue from each mouse: inhibited cancer progression
[7]; 20 mg/kg intraperitoneal once daily for 28 days, n = 7, versus PBS n = 4
  number of formed cancers: dramatically decreased
[7]; 20 mg/kg once daily for 28 days
  levels of KI-67 and CDC25B in cancer sections (immunostaining): dramatically down-regulated
[8]
  morphological lesions in heart, liver, spleen, lung, and kidney (H&E): no obvious morphological lesions
FOXM1/DNA complex
  DNA binding ability of FOXM1 (EMSA): did not disturb
[9]
  FOXM1-MuvB-mediated stimulation on the CHR-containing promoter (luciferase): abolished FOXM1-MuvB-mediated stimulation
[10]
  period of stay in the body (stability in mice): > 15 h
TCF/LEF-binding promoter
  β-catenin-mediated stimulation on the TCF/LEF-binding promoter (luciferase): abolished β-catenin-mediated stimulation
MCF-10A cells
  inhibition of normal breast epithelial cells, in words: did not inhibit
